How the values were obtained:
[1] = tested on: sulfhydryl modified aptamer 31 (DNA, aptamer) ACGCATAGGGTGCGACCACATACGCCCCATGTATGTCCCTTGGTTGTGCCCTATGCGT; experiment: electrochemical impedance spectroscopy; details: K+ (0.5 M KCl), 10 mM K3[Fe(CN)6]/K4[Fe(CN)6], PBS pH 7.0, 30 min
[2] = tested on: Aptamer 281 (DNA, aptamer) ACGCATAGGGTGTGCATCAGCAGTACCAACGACGTTGTGGTGTGCTCATCCTATGCGT; experiment: LSPR (OpenSPR), one-to-one kinetic model; details: Na+ (29.2 g NaCl per 500 mL, about 1 M), Mg2+ (0.1 g MgCl2·6H2O per 500 mL, about 1 mM); immobilised compound; amine chip; phosphate buffer pH 7.0; aptamer as analyte, 2.5-40 nM
[3] = tested on: Aptamer 203 (DNA, aptamer) ACGCATAGGGCAAGACAAACTGCGCCATTCAGCATGCTGTTCGGGTTGGCCTATGCGT; experiment: LSPR (OpenSPR), one-to-one kinetic model; details: Na+ (29.2 g NaCl per 500 mL, about 1 M), Mg2+ (0.1 g MgCl2·6H2O per 500 mL, about 1 mM); immobilised compound; amine chip; phosphate buffer pH 7.0; aptamer as analyte, 2.5-40 nM
[4] = tested on: Aptamer 123 (DNA, aptamer) ACGCATAGGGCAACCAGACCAGCCCCATCCCCATGTGACTTCTGTTTGGCCTATGCGT; experiment: LSPR (OpenSPR), one-to-one kinetic model; details: Na+ (29.2 g NaCl per 500 mL, about 1 M), Mg2+ (0.1 g MgCl2·6H2O per 500 mL, about 1 mM); immobilised compound; amine chip; phosphate buffer pH 7.0; aptamer as analyte, 2.5-40 nM
[5] = tested on: Aptamer 31 (DNA, aptamer) ACGCATAGGGTGCGACCACATACGCCCCATGTATGTCCCTTGGTTGTGCCCTATGCGT; experiment: LSPR (OpenSPR), one-to-one kinetic model; details: Na+ (29.2 g NaCl per 500 mL, about 1 M), Mg2+ (0.1 g MgCl2·6H2O per 500 mL, about 1 mM); immobilised compound; amine chip; phosphate buffer pH 7.0; aptamer as analyte, 2.5-40 nM
[6] = tested on: Aptamer 281 (DNA, aptamer) ACGCATAGGGTGTGCATCAGCAGTACCAACGACGTTGTGGTGTGCTCATCCTATGCGT; experiment: AuNP colorimetric assay (A620/A520 ratio > 1.1); details: 1.0 M NaCl added after incubation to aggregate AuNPs; 0.4 μM aptamer, 1 μg/mL DEHP, 30 min; room temperature
[7] = tested on: Aptamer 31 (DNA, aptamer) ACGCATAGGGTGCGACCACATACGCCCCATGTATGTCCCTTGGTTGTGCCCTATGCGT; experiment: AuNP colorimetric assay (A620/A520 ratio > 1.1); details: 1.0 M NaCl added after incubation to aggregate AuNPs; 0.4 μM aptamer, 1 μg/mL DEHP, 30 min; room temperature
[8] = tested on: Aptamer 123 (DNA, aptamer) ACGCATAGGGCAACCAGACCAGCCCCATCCCCATGTGACTTCTGTTTGGCCTATGCGT; experiment: AuNP colorimetric assay (A620/A520 ratio > 1.1); details: 1.0 M NaCl added after incubation to aggregate AuNPs; 0.4 μM aptamer, 1 μg/mL DEHP, 30 min; room temperature
[9] = tested on: Aptamer 203 (DNA, aptamer) ACGCATAGGGCAAGACAAACTGCGCCATTCAGCATGCTGTTCGGGTTGGCCTATGCGT; experiment: AuNP colorimetric assay (A620/A520 ratio > 1.1); details: 1.0 M NaCl added after incubation to aggregate AuNPs; 0.4 μM aptamer, 1 μg/mL DEHP, 30 min; room temperature

| SMILES | binding ([1]; only 30.518 pg/mL tested) | further results |
| --- | --- | --- |
| CC(C)COC(=O)c1ccccc1C(=O)OCC(C)C | no |  |
| CCCCC(CC)COC(=O)c1ccc(OCCCC(=O)O)cc1C(=O)OCC(CC)CCCC (stereo not drawn) |  | Kd [2]: 43 ± 0.7 nM; Kd [3]: 2.68 ± 0.2 nM; Kd [4]: 5.33 ± 0.01 nM; Kd [5]: 2.26 ± 0.06 nM |
| CCCCC(CC)COC(=O)c1ccccc1C(=O)OCC(CC)CCCC (stereo not drawn) |  | binding [6]: yes; binding ([1]; 30.518 pg/mL): yes; binding [7]: yes; binding [8]: yes; binding [9]: yes |
| CCCCOC(=O)c1ccccc1C(=O)OCc1ccccc1 | no |  |
| COC(=O)c1ccccc1C(=O)OC | no |  |
| O=C(OC1CCCCC1)c1ccccc1C(=O)OC1CCCCC1 | no |  |
| O=C(Oc1ccccc1)c1ccccc1C(=O)Oc1ccccc1 | no |  |

More lines, main results first:

| binding ([1]; only 30.518 pg/mL tested) | SMILES | further results |
| --- | --- | --- |
| no | CCCCCCCCOC(=O)c1ccccc1C(=O)OCCCCCCCC |  |
| no | CCCCCCOC(=O)c1ccccc1C(=O)OCCCCCC |  |
| no | CCCCOC(=O)c1ccccc1C(=O)OCCCC |  |
| no | CCOC(=O)c1ccccc1C(=O)OCC |  |
